Results on eight compounds are retold here after PubChem BioAssay (NCI).

Structures are written as SMILES. Values joined by “and” are separate entries in the source; they are usually repeats but may differ in a detail not shown here. Equal entries are not always repeated.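 1) Cells in 96-well plates. 2) Compound, 48 h, 5 concentrations. 3) Linear interpolation between surrounding doses. 4) Unreached endpoint = highest concentration. Here, GI50 denotes the concentration required for 50% inhibition of growth. At the TGI there is no net growth.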

What all share (experiment): DTP human tumour cell line panel, 48 h
For test [1], the system named is 786-0 renal.
Test [2] concerns A549 NSCLC.
Test [3] concerns DU-145 prostate.
The test system of test [4] is EKVX NSCLC.
In test [5] the test system is HT29 colon.
Test [6] concerns KM12 colon.
Test [7] relates to MCF7 breast.
Test [8] has as its system RPMI-8226 leukemia.
Test [9] has as its system SF-268 CNS.
In test [10] the test system is SK-MEL-5 melanoma.

Consider `COc1ccc(-c2c(-c3cc(OC)c(OC)c(OC)c3)noc2N)cc1`, for which the GI50 (as a rule, the concentration at which growth is held to half of that of the control) in test [1] is below 0.017 µM; in test [2], below 0.0124 µM; in test [3], 0.0187 µM; in test [4], 1.03 µM; in test [5], below 0.0144 µM; in test [6], below 0.01 µM. Moreover, the GI50 in test [7] was below 0.01 µM; in [8], 0.0474 µM; in test [9], below 0.0181 µM; in test [10], below 0.01 µM. Also, the concentration for total growth inhibition (TGI) (as a rule, the concentration at which net growth stops) in test [2] is above 100 µM; in test [3], 1.32 µM; in test [4] it was above 100 µM; in test [5] it was 0.796 µM; in [6], above 36.6 µM; in [7] it was 19.1 µM. The TGI in test [8] was found to be 5.96 µM; in [9], 16.3 µM; in test [10] it was 0.257 µM.

With `N#CS.N=C=S.N=C=S.[Cu+2].[NH2-].[NH2-].[NH2-].[NH2-].c1ccc2ncccc2c1`, the GI50 in test [1] was above 100 µM; in test [2], 20.4 µM; in test [3], 17.3 µM; in [4], 47.4 µM; in test [5] it was 60.7 µM; in test [6], 31.5 µM. Further, the GI50 in test [7] is 18.2 µM; in test [8] it was above 100 µM; in test [9] it was 49.7 µM; in test [10], 17.8 µM. Besides, the TGI in [1] was above 100 µM; in [2], 51.5 µM; in [3], 36.1 µM; in [4], above 100 µM; in test [5], above 100 µM; in test [6] it was above 100 µM. For the same compound, the TGI in test [7] was 35.9 µM; in test [8], above 100 µM; in test [9], above 100 µM; in test [10], 38.7 µM.

Consider `O=c1c2ccccc2c2ccccc2c(=O)n1Cc1ccc2c(c1)OCO2`, for which the TGI in test [1], in [2], in test [3], in test [4], in [5] and in [6] was above 100 µM in each case. Moreover, the TGI was above 100 µM in [7], above 67.4 µM in test [8], above 100 µM in test [9] and above 100 µM in test [10].

With `c1ccc(CN=C(NCc2ccccc2)NCc2ccccc2)cc1`, the GI50 in test [1] was 11.4 µM; in test [2], 11.2 µM; in test [3] it was 5.38 µM; in [4] it was 1.85 µM; in test [5], 5.58 µM; in [6], 3.36 µM. Further, the GI50 in test [7] is 6.37 µM; in test [8] it was 4.7 µM; in [9], 4.32 µM; in [10] it was 3.95 µM. The TGI turned out to be 25.7 µM in test [1]; 25.3 µM in test [2]; 19.4 µM in test [3]; 7.81 µM in [4]; 19.8 µM in [5]; 13.1 µM in test [6]. Besides, the TGI in test [7] stood at 19.6 µM; in test [8], 24.4 µM; in [9], 18.5 µM; in [10], 14.6 µM.

As for `CCN(CC)CCNc1cc(-c2cccc(OC(F)(F)F)c2)nc2ccc(N3CCCC3)cc12`, the GI50 in test [1] is 1.66 µM and 1.67 µM and 1.59 µM; in [2] it was 1.71 µM and 1.73 µM and 2.55 µM; in test [3], 1.85 µM and 2.36 µM and 3.59 µM; in test [4], 2.14 µM and 2.29 µM and 2.49 µM; in test [5], 1.7 µM and 1.6 µM and 1.76 µM; in test [6] it was 1.71 µM and 1.7 µM and 1.85 µM. For the same compound, the GI50 in test [7] is 1.64 µM and 1.45 µM and 1.76 µM; in test [8] it was 1.35 µM and 1.6 µM and 1.69 µM; in test [9] it was 1.98 µM and 1.92 µM and 2.23 µM; in test [10], 1.63 µM and 1.91 µM and 1.7 µM. The TGI in test [1] was 3.19 µM and 3.23 µM; in test [2] it was 3.35 µM and 3.29 µM and 7.3 µM; in [3], 4.1 µM and 5.44 µM and 12.8 µM; in test [4] it was 5.82 µM and 6.24 µM and 8.91 µM; in [5], 3.47 µM and 3.33 µM and 3.73 µM; in [6], 3.51 µM and 3.39 µM and 3.77 µM. The TGI was 3.44 µM and 2.9 µM and 3.62 µM in [7]; 3.54 µM and 3.94 µM and 4.22 µM in test [8]; 4.18 µM and 3.96 µM and 5.89 µM in test [9]; 2.99 µM and 3.35 µM and 3.17 µM in [10].

As for `COc1cc(-c2ncn(/C=C\C(=O)OC(C)C)n2)cc(C(F)(F)F)c1`, the GI50 in test [1] is 0.101 µM and 0.098 µM; in test [2], 0.0609 µM and 0.0783 µM; in test [3], 0.238 µM and 0.2 µM; in [4], 2.6 µM; in [5], 0.0474 µM and 0.0896 µM; in [6] it was 0.368 µM and 0.309 µM. Also, the 50% growth inhibitory concentration (GI50) was 0.0364 µM and 0.0477 µM in test [7]; 0.036 µM and 0.0286 µM in [8]; 0.0493 µM and 0.0487 µM in test [9]; 0.274 µM and 0.11 µM in test [10]. The TGI in [1] was 2.61 µM and 3.25 µM; in test [2], 11.6 µM and 8.63 µM; in test [3], 12.5 µM and 11.7 µM; in test [4], 19.5 µM; in test [5], 12.3 µM and 3.01 µM; in test [6] it was 12.2 µM and 4.32 µM. The total growth inhibition concentration (TGI) in test [7] was 1.67 µM and 10.4 µM; in [8] it was > 36.1 µM and 4.66 µM; in [9] it was 8 µM and 3.58 µM; in test [10], 1.8 µM and 2.72 µM.

With `C=C1C(=O)O[C@@H]2C1C[C@@H](O)C(=C)CC/C=C(\C)CCC[C@H](C)[C@H]2OC(C)=O` (some centres undefined), the GI50 in test [1] was 4.84 µM; in test [2], 22.9 µM; in test [3] it was 11.9 µM; in test [4], 12 µM; in test [5], 4.17 µM; in test [6] it was 11.4 µM. Moreover, the GI50 in test [7] is 3.04 µM; in test [8] it was 2.52 µM; in test [9], 11 µM; in [10], 2.76 µM. Further, the TGI in test [1] was 16.3 µM; in [2] it was 48.8 µM; in [3] it was 25.3 µM; in [4], 25.6 µM; in [5] it was above 100 µM; in test [6], 26 µM. Moreover, the TGI amounted to 18.5 µM in test [7], 6.61 µM in test [8], 30.5 µM in [9] and 10.8 µM in test [10].

Consider `COc1cnc2c(c1)C(=O)c1c-2n(CCCNC(C)C)c(=O)c2cc(F)ccc12`, for which the GI50 in test [1] is 0.116 µM; in [2], 0.0718 µM; in [3], 0.21 µM; in test [4], 0.299 µM; in test [5] it was 0.0731 µM; in test [6], 0.165 µM. The GI50 is 0.0318 µM in [7], 0.154 µM in test [8], 0.207 µM in test [9] and 0.156 µM in [10]. Moreover, the TGI in [1] was 0.482 µM; in [2] it was 0.239 µM; in test [3] it was 1.04 µM; in test [4], 1.73 µM; in [5], 0.33 µM; in test [6] it was 0.851 µM. Further, the TGI in [7] was found to be 2.08 µM; in test [8], 0.951 µM; in test [9] it was 1.68 µM; in test [10], 0.496 µM.
